According to publication PMC4573514, “Identification and characterization of [6]-shogaol from ginger as inhibitor of vascular smooth muscle cell proliferation” (Molecular Nutrition & Food Research, 2015):
Entries after “also recorded” stand apart in the source; their conditions may differ.

What was measured:
VSMC [1] = test: Crystal violet biomass staining, PDGF-BB-stimulated VSMC; type: cell-based; conditions: Rattus norvegicus, PDGF-BB 20 ng/mL, 48 h
Description: VSMC were seeded in 96-well plates at 5 × 10^3 cells/well. Twenty-four hours later, cells were serum starved for 24 h to render them quiescent. Quiescent cells were pretreated for 30 min with ginger extract, compounds, or vehicle (0.1% DMSO) as indicated and subsequently stimulated for 48 h with PDGF-BB (20 ng/mL). To determine the total biomass by crystal violet staining, cells were then incubated in 100 μL of crystal violet staining solution (0.5% crystal violet, 20% methanol) for 15 min and then washed with ddH2O. After drying, 100 μL EtOH/Na-citrate solution were added (EtOH: 0.1M Na-citrate = 1:1) and the absorbance of the samples was measured at 595 nm in a 96-well plate reader (Tecan sunrise).

HUVECtert = test: Resazurin conversion assay in endothelial cells; type: cell-based, human; conditions: for Resazurin metabolic conversion in HUVECs (endothelial viability/proliferation): HUVECtert, 48 h, n.s. = no significant difference, up to stated concentration
Description: VSMC were seeded in 96-well plates at 5 × 10^3 cells/well. After 24 h, cells were serum-starved for 24 h to render them quiescent. Quiescent cells were pretreated for 30 min with ginger extract, compounds, or vehicle (0.1% DMSO) as indicated, and subsequently stimulated for 48 h with PDGF-BB (20 ng/mL). […] Total metabolic activity was measured by monitoring the increase in fluorescence at a wavelength of 590 nm using an excitation wavelength of 535 nm in a 96-well plate reader (Tecan GENios Pro). HUVECtert cells,[20] were seeded in 96-well plates at 5 × 10^3 cells/well. After 24 h, HUVECtert cells were treated with compounds or vehicle (0.1% DMSO) as indicated and incubated for 48 h. Then, cells were washed with PBS and incubated in culture medium containing 10 μg/mL resazurin for 2 h. The detection step is performed as described above.

VSMC [2] = test: Assessment of cytotoxicity by LDH release; type: cell-based; conditions: PDGF-BB 20 ng/mL, 24 h, n.s. = no significant difference, up to stated concentration
Description: VSMC were seeded in 96-well plates at 5 × 10^3 cells/well. Twenty-four hours later, cells were serum starved for 24 h to render them quiescent. Quiescent cells were pretreated for 30 min with compounds, or vehicle (0.1% DMSO) as indicated, and subsequently stimulated for 24 h with PDGF-BB (20 ng/mL). Loss of cell membrane integrity as a sign for cell death can be quantified by the release of the soluble cytosolic protein lactate dehydrogenase (LDH),[23]. For this, the supernatant of the treated cells was assessed for LDH activity. For estimation of the total LDH, identically treated samples were incubated for 45 min in the presence of 1% Triton X-100. The released and total LDH enzyme activity was measured for 30 min at the dark in the presence of 4.5 mg/mL lactate, 0.56 mg/mL NAD+, 1.69 U/mL diaphorase, 0.004% w/v BSA, 0.15% w/v sucrose, and 0.5 mM 2-p-iodophenyl-3-nitrophenyl tetrazolium chloride. The enzyme reaction was stopped with 1.78 mg/mL oxymate and the absorbance was measured at 490 nm. Potential effects on cell viability were estimated as percentage of extracellular LDH enzyme activity. The cytotoxic natural product digitonin (100 μg/mL) was used as a positive control.

VSMC [3] = test: Resazurin conversion assay, PDGF-BB-induced VSMC proliferation; type: cell-based, rat; conditions: for IC50: VSMC
Description: VSMC were seeded in 96-well plates at 5 × 10^3 cells/well. After 24 h, cells were serum-starved for 24 h to render them quiescent. Quiescent cells were pretreated for 30 min with ginger extract, compounds, or vehicle (0.1% DMSO) as indicated, and subsequently stimulated for 48 h with PDGF-BB (20 ng/mL). To measure the number of metabolically active VSMC by resazurin conversion,[19], cells were washed with PBS and incubated in serum-free medium containing 10 μg/mL resazurin for 2 h. Total metabolic activity was measured by monitoring the increase in fluorescence at a wavelength of 590 nm using an excitation wavelength of 535 nm in a 96-well plate reader (Tecan GENios Pro). HUVECtert cells,[20] were seeded in 96-well plates at 5 × 10^3 cells/well. After 24 h, HUVECtert cells were treated with compounds or vehicle (0.1% DMSO) as indicated and incubated for 48 h. Then, cells were washed with PBS and incubated in culture medium containing 10 μg/mL resazurin for 2 h. The detection step is performed as described above.

VSMC [4] = test: BrdU incorporation assay (de novo DNA synthesis); type: cell-based; conditions: Rattus norvegicus, PDGF-BB 20 ng/mL, read-out: Inhibition of PDGF-stimulated DNA synthesis, BrdU incorporation (IC50)
Description: VSMC were seeded in 96-well plates at 5 × 10^3 cells/well. Twenty-four hours later, cells were serum starved for 24 h to render them quiescent. Quiescent cells were pretreated for 30 min with compounds, or vehicle (0.1% DMSO) as indicated and subsequently stimulated with PDGF-BB (20 ng/mL). To estimate de novo DNA synthesis in VSMC [21],[22], BrdU was added 2 h after PDGF stimulation, and the incorporation amount was determined 22 h afterwards according to the manufacturer's instructions (Roche Diagnostics).

[5] = parameters: method as in PMID 19201263; conditions: rats, single oral administration of ginger oleoresin 300 mg/kg; ref [39]; cited from earlier work
HO-1 = test: Immunoblot analysis of HO-1 expression in VSMC; type: cell-based, rat; conditions: 3 and 10 μM, PDGF-BB 20 h
Description: (§1) Cells (MEF or VSMC) were seeded onto six-well plates ((3–4) × 10^5 cells/well). Twenty-four hours later, MEF were treated with vehicle (0.1% DMSO) or [6]-shogaol at the indicated concentrations for 20 h; VSMC were serum starved for another 24 h, then quiescent cells were pretreated for 30 min with vehicle (0.1% DMSO) or [6]-shogaol as indicated and subsequently stimulated for 20 h with PDGF-BB (20 ng/mL). Then, cells were lysed and protein extracts were subjected to SDS-PAGE electrophoresis and immunoblot analysis as described,[22]. Proteins were visualized using enhanced chemiluminescence reagent and an LAS-3000 luminescent image analyzer (Fujifilm) with AIDA software (Raytest) for densitometric evaluation.

Nrf2/HO-1 = test: Immunoblot analysis of HO-1 in WT and Nrf2-/- mouse embryonic fibroblasts; type: cell-based; conditions: 10 or 3 μM
Description: as §1

VSMC [6] = test: Cell-cycle analysis by PI staining and flow cytometry; type: cell-based, rat; conditions: 10 μM, PDGF-BB 20 ng/mL 16 h, PI stained nuclei
Description: VSMC were seeded in 12-well plates at 1 × 10^4 cells/well. Twenty-four hours later, cells were serum starved for 24 h to render them quiescent. Quiescent cells were preincubated with [6]-shogaol (10 μM) or vehicle ([…]) for 30 min. PDGF-BB (20 ng/mL) was added, and 16 h later cells were trypsinized, washed once with PBS, and resuspended in a hypotonic propidium iodide (PI) solution containing 0.1% v/v Triton X-100, 0.1% w/v sodium citrate, and 50 μg/mL PI. After incubation at 4°C overnight, PI-stained nuclei were analyzed by flow cytometry (excitation 488 nm, emission 585 nm; FACScalibur; BD Biosciences, Germany).

[7] = Rattus norvegicus, 48 h, PDGF-BB 20 ng/mL, 48 h, read-out: Resazurin metabolic conversion (IC50)

Structure (SMILES) | IC50 (VSMC [1]) | Resazurin metabolic conversion in HUVECs (endothelial viability/proliferation) (HUVECtert) | Cell death (LDH release) (VSMC [2]) | IC50 (VSMC [3]; [7]) | also measured
CCCCC[C@H](O)CC(=O)CCc1ccc(O)c(OC)c1 [[6]-Gingerol, [6]-gingerol] | 8.77 µM | n.s. (up to 30 μM) | n.s. (up to 100 μM) | 13.2 µM | –
COc1cc(CCC(C)=O)ccc1O [Zingerone, zingerone] | – | – | – | > 100 µM | –
CC(=O)O[C@H]1C(=O)[C@@]2(C)[C@H]([C@H](OC(=O)c3ccccc3)[C@]3(O)C[C@H](OC(=O)[C@H](O)[C@@H](NC(=O)c4ccccc4)c4ccccc4)C(C)=C1C3(C)C)[C@]1(OC(C)=O)CO[C@@H]1C[C@@H]2O [paclitaxel, reference compound] | – | – | – | – | IC50 (HUVECtert; Homo sapiens, Endothelial cell, endothelial cells, data not shown, read-out: Anti-proliferative effect in endothelial cells (IC50)): 0.004 µM; IC50 (VSMC [3]; Rattus norvegicus, data not shown, read-out: Anti-proliferative effect in VSMC (IC50)): 0.108 µM

Now from value to compound, other results behind:

IC50 (VSMC [1]) | Structure (SMILES) | Resazurin metabolic conversion in HUVECs (endothelial viability/proliferation) (HUVECtert) | Cell death (LDH release) (VSMC [2]) | IC50 (VSMC [3]; [7]) | also measured
4.11 µM | CCCCCCCC(O)CCc1ccc(O)c(OC)c1 (racemic) [rac-[6]-Dihydroparadol, rac-[6]-dihydroparadol] | n.s. (up to 30 μM) | n.s. (up to 30 μM) | 10 µM | –
1.13 µM | CCCCCC=CC(=O)CCc1ccc(O)c(OC)c1 [[6]-Shogaol, [6]-shogaol] | n.s. (up to 10 μM) | n.s. (up to 10 μM) | 2.7 µM | IC50 (VSMC [4]): 3 µM; Peak plasma concentration [5]: 0.11 µg/L; Peak plasma concentration (converted) [5]: 0.40 µM; HO-1 levels compared to vehicle treated cells (HO-1): significantly elevated HO-1 levels; Resazurin metabolic conversion in HUVECs (endothelial viability/proliferation) (HUVECtert; listed as [6]-shogaol): did not interfere with endothelial cell proliferation; also recorded: did obviously not impair endothelial viability and proliferation; Cell death (LDH release) (VSMC [2]; listed as [6]-shogaol): did not exhibit cytotoxicity toward VSMC; HO-1 induction in WT vs Nrf2-/- fibroblasts (Nrf2/HO-1): strictly Nrf2-dependent increase of HO-1; Cell-cycle distribution (VSMC [6]): counteracted the PDGF-induced transition of VSMC from the G0/G1 cell-cycle phase to the G2/M phase; IC50 (VSMC [3]; PDGF-BB 20 ng/mL, 48 h, read-out: Resazurin metabolic conversion (IC50)): 2.72 µM; Antiproliferative effect in the presence of HO-1 inhibitor tin protoporphyrin IX (VSMC [3]; [6]-shogaol 3 μM, SnPP 10 μM pretreatment 1 h, resazurin conversion): lost its antiproliferative activity; also recorded: loses its antiproliferative influence on VSMC
3.34 µM | CCCCCCCC(=O)CCc1ccc(O)c(OC)c1 [[6]-Paradol, [6]-paradol] | n.s. (up to 30 μM) | n.s. (up to 30 μM) | 5.3 µM | –
